The values that follow come from patent US7323167B2, “Method of treatment with modified arginine deiminase” (Polaris Group, priority 1997, dated 2008).

SMILES strings stand for the structures.

Experiment [1] concerns the target T1, Mycoplasma arginini arginine deiminase (ADIPROT, ATCC 23243), recombinant, expressed in E. coli, SEQ ID NO: 1 (Mycoplasmopsis arginini, UniProt P23793).
T1 construct: made in house; host or cells: E. coli
Kind of experiment: Kinetic characterization (Km, Vmax, affinity) of recombinant ADI with arginine, quantifying citrulline production. The format is biochemical. The settings on record: about; range given for the enzymes of the three Mycoplasma species; various concentrations of arginine. An excerpt: (§1) Cultures of Mycoplasma arginini (ATCC 23243), Mycoplasma hominus (ATCC 23114) and Mycoplasma arthritides (ATCC 23192) were obtained from the American Type Culture Collection, Rockville, Md.
(§2) Arginine deiminase was cloned from Mycoplasma arginini, Mycoplasma hominus and Mycoplasma arthritides and expressed in E. coli as previously described by S. Misawa et al, J. Biotechnology, 36:145-155 (1994), the disclosure of which is hereby incorporated herein by reference in its entirety. The top amino acid sequence, identified as ADIPROT, is from Mycoplasma arginini; the middle amino acid sequence, identified as ARTADIPRO, is from Mycoplasma arthritides; and the bottom amino acid sequence, identified as HOMADIPRO, is from Mycoplasma hominus. Each of the amino acid sequences are more than 96% conserved. […] The pH optima was determined using a citrate buffer (pH 5-6.5), a phosphate buffer (pH 6.5-7.5) and a borate buffer (pH 7.5-8.5). The Km and Vmax were determined by incubating the enzyme with various concentrations of arginine and quantifying citrulline production. The Km for the various enzymes was about 0.02 to 0.06 μM and the Vmax was about 15-20 μmol/min/mg, the values of which are within standard error of each other.
(§3) The proteins from each of the above three species of Mycoplasma have approximately 95% homology and are readily purified by column chromatography. […]

Experiment [2] has as its target T2, Mycoplasma hominus arginine deiminase (HOMADIPRO, ATCC 23114), recombinant, expressed in E. coli, SEQ ID NO: 3 (Metamycoplasma hominis, UniProt P41141).
T2 construct: tag not given
The experiment is described as above. The format is biochemical. The settings on record: about; range given for the enzymes of the three Mycoplasma species; various concentrations of arginine.
Description: as §1, §2, §3

T2 sequence (P41141 whole entry): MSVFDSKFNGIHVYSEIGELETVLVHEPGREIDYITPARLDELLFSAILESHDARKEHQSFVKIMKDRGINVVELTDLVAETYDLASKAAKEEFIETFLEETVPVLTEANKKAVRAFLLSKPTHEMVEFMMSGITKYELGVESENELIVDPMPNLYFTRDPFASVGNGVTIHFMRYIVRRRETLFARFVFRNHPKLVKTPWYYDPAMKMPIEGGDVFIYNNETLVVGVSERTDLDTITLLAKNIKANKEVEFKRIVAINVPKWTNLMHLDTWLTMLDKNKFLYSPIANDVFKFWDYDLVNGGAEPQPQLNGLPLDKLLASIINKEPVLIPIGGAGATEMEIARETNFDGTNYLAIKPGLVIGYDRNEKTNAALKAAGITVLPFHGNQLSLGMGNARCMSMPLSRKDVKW
T1 sequence (P23793 whole entry E126K): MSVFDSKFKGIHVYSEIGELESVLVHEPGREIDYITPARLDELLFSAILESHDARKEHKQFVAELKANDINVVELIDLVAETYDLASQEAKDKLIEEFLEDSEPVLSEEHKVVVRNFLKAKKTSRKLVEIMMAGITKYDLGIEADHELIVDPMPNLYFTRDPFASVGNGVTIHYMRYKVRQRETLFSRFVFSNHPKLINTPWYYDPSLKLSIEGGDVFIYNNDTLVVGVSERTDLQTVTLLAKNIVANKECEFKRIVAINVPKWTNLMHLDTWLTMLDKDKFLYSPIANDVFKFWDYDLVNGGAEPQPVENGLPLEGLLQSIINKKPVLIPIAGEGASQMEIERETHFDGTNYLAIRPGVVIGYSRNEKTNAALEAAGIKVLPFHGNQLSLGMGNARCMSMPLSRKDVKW

`N=C(N)NCCC[C@H](N)C(=O)O` [arginine, L-arginine]: the maximal velocity (Vmax) in experiment [1] and in experiment [2] was 15 to 20 µmol/min/mg in each case.

For orientation: Vmax means the rate approached at saturating substrate.
